Experimental findings from PubChem BioAssay AID1996 are described below.

Converted amounts (≈) assume the structure as drawn. A value given as a limit tells only on which side of the number the result lay.

The conditions of this series: buffer; pH 7.4; 200.0 µM.
Broadly, the solubility (kinetic) is solubility judged after dilution from a stock solution rather than from solid. Regarding `O=C(COC(=O)c1ccc(Br)o1)Nc1cccc(S(=O)(=O)N2CCOCC2)c1`, the solubility (kinetic) amounted to 59.2 µg/mL (≈ 125 µM). The result for `Cc1ccc(S(=O)(=O)N2CCN(Cc3ccco3)CC2)cc1C` reads 13.1 µg/mL (≈ 39.2 µM); that for `CCOc1ccc2oc(C(=O)OCC(=O)NC3CC3)c(C)c2c1`, 1.5 µg/mL (≈ 4.73 µM); that for `Cc1cccc(-c2nc(C#N)c(N3CCCCC3)o2)c1`, 0.4 µg/mL (≈ 1.5 µM). The result for `COC(=O)c1ccccc1CSc1nsc(C)c1C#N` reads less than 0.3 µg/mL; that for `CSc1ncccc1C(=O)NC1CCCCCC1`, 35.5 µg/mL (≈ 134 µM). The result for `C=CC(=O)Oc1ccc(N2Cc3ccccc3C2=O)cc1` reads 2.4 µg/mL (≈ 8.59 µM); that for `CC(C)CN(C(=O)C1CCCCC1)C1CCS(=O)(=O)C1` (centres undefined), greater than 45.2 µg/mL; that for `CC(O)CNc1nc2c(c(=O)n(Cc3cccc(Cl)c3)c(=O)n2C)n1C` (centres undefined), 50.5 µg/mL (≈ 134 µM).

For `COc1ccc(-c2cc(-c3ccccc3)c(C#N)c(=S)[nH]2)cc1`, the solubility (kinetic) was 3.2 µg/mL (≈ 10.1 µM). This solubility kinetic lies about 16-fold lower than the previous one. In the case of `O=C1C=C(N2CCOCC2)C2(CCCCC2)O1` it was greater than 35.6 µg/mL.

Take `O=C(Cc1csc(-c2ccccc2)n1)NCC(=O)Nc1ccc(F)c(F)c1F`: the solubility (kinetic) came out at 9 µg/mL (≈ 22.2 µM). In the case of `O=C(/C=C/c1c(F)cccc1Cl)NCCCN1CCOCC1` it was greater than 49 µg/mL. In the case of `Cc1onc(-c2ccccc2)c1C(=O)NCCSCc1ccco1` it was greater than 51.4 µg/mL; in that of `O=S(=O)(NCCN1CCCC1)c1ccc(Br)cc1`, 46.9 µg/mL (≈ 141 µM); in that of `COc1ccc(S(=O)(=O)Nc2cc(S(=O)(=O)N3CCOCC3)ccc2OC)cc1`, 37.3 µg/mL (≈ 84.3 µM).

`CC(C)(C)c1ccc(OC(=O)N2CCOCC2)cc1` showed a solubility (kinetic) of 31.9 µg/mL (≈ 121 µM). In the case of `CC(=O)Nc1ccc(NC(=O)c2ccc(COc3ccccc3)cc2)cc1` it was 0.6 µg/mL (≈ 1.66 µM); in that of `CC(=O)c1ccc(S(=O)(=O)Nc2ccc(S(=O)(=O)N3CCCCC3)cc2)cc1`, greater than 63.4 µg/mL.

`COc1ccc(S(=O)(=O)NCc2cccnc2)cc1OC` yielded a kinetic solubility greater than 46.3 µg/mL. In the case of `CC1CN(C(=O)C2CC(=O)N(c3ccc(Cl)cc3)C2)CC(C)O1` (centres undefined) it was greater than 50.5 µg/mL; in that of `C=CCOc1ccccc1CN1CCCCCC1`, 28.7 µg/mL (≈ 117 µM). Turning to `CC(=O)c1cccc(S(=O)(=O)N2CCC(C(=O)O)CC2)c1`, the solubility (kinetic) is greater than 46.7 µg/mL.

As to `O=C(Nc1nnc2n1CCS2)c1ccc(Br)o1`, the solubility (kinetic) was greater than 47.3 µg/mL. The result for `CC(=O)N1C(C(=O)O)Cc2c([nH]c3ccccc23)C1C` (centres undefined) reads greater than 40.8 µg/mL. Regarding `CC1CCN(C(=O)c2ccc(-c3ccccc3Cl)o2)CC1`, the solubility (kinetic) is 7.3 µg/mL (≈ 24 µM).

In the case of `CNC(=S)NC12CC3CC(CC(C3)C1)C2`, the solubility (kinetic) worked out at 3.8 µg/mL (≈ 16.9 µM).

In the case of `CSCCC(NC(=O)c1ccco1)C(=O)Nc1ccncc1` (centres undefined), the solubility (kinetic) is greater than 47.9 µg/mL. The result for `Cc1cnc(C(=O)NCCc2ccc(C(F)(F)F)cc2)cn1` reads 11.9 µg/mL (≈ 38.5 µM). `COc1cc(C=O)ccc1OC(=O)N1CCOCC1`: the kinetic solubility was greater than 39.8 µg/mL.

The compound `CN(C)C(=O)CS(=O)(=O)c1ccc(Cl)cc1` gave a kinetic solubility of 32.7 µg/mL (≈ 125 µM). The result for `O=C(O)c1ncc(Cl)c(Cl)c1Cl` reads 33.1 µg/mL (≈ 146 µM). In the case of `Cc1cccc(NC(=O)CN2C(=O)C(C)Oc3ccccc32)n1` (centres undefined), the kinetic solubility was greater than 46.7 µg/mL. The result for `CC(Sc1nncn1C)C(=O)Nc1ccc2ccccc2c1` (centres undefined) reads greater than 46.9 µg/mL. In the case of `CC1CC(=O)C2=C(C1)Nc1nc3ccccc3n1C2c1cccnc1` (centres undefined) it was 3.3 µg/mL (≈ 9.99 µM). The result for `Cc1occc1C(=O)Nc1cccc(Cl)c1Cl` reads 4.5 µg/mL (≈ 16.7 µM); that for `CCOCCOc1cccc(C(=O)NC(c2ccccc2)C(C)C)c1` (centres undefined), 6.2 µg/mL (≈ 18.2 µM). On to `Cc1ccc(C)n1CCN1CCN(C(=O)CC#N)CC1`, for which the solubility (kinetic) was greater than 41.2 µg/mL. In the case of `O=C(COC(=O)c1ccncc1)c1ccc(Cl)c(Cl)c1` it was 39.8 µg/mL (≈ 128 µM).

For the compound `Cc1ccc(C(=O)NC(=O)OCCn2c(C)cnc2[N+](=O)[O-])cc1`, the kinetic solubility came out at 48.2 µg/mL (≈ 145 µM). The result for `OCCCN=C1CCCc2c1[nH]c1ccc(Cl)cc21` reads 14.4 µg/mL (≈ 52 µM); that for `COc1ccc(C(=O)OCC(=O)c2ccc3c(c2)NC(=O)CO3)cc1OC`, 10.8 µg/mL (≈ 29.1 µM). The result for `Oc1ccccc1-c1nc(NCc2ccccc2)c2ccccc2n1` reads less than 0.2 µg/mL; that for `CCOP(=O)(c1ccccc1)C1(C#N)CC1` (centres undefined), 23 µg/mL (≈ 97.8 µM); that for `O=C(CSc1nc(-c2ccccc2)cs1)NCCCN1CCCC1=O`, greater than 56.3 µg/mL. In the case of `O=C(O)CC1(CC(=O)NCc2ccccn2)CCCCC1` it was greater than 43.6 µg/mL; in that of `O=C(COC(=O)C12CC3CC(CC(O)(C3)C1)C2)Nc1ccc(Cl)c(S(=O)(=O)N2CCOCC2)c1`, greater than 77 µg/mL; in that of `O=C(NCc1ccc2c(c1)OCO2)c1c(Cl)cccc1Cl`, 15 µg/mL (≈ 46.3 µM).

For the compound `O=C(OCc1c(F)cccc1Cl)c1cnc2ccccc2n1`, the solubility (kinetic) is 1.8 µg/mL (≈ 5.68 µM). In the case of `O=C(Nc1ccccc1C(=O)N1CCCCCC1)c1ccc(F)cc1` it was greater than 51.1 µg/mL; in that of `COc1ccc(CCNc2cc(C)nc(N)n2)cc1OC`, greater than 43.3 µg/mL; in that of `COc1ccc(C(=O)Nc2ccc3ccccc3n2)c(OC)c1OC`, 2.2 µg/mL (≈ 6.5 µM). For the compound `Oc1ccc(-c2csc(Nc3ccccn3)n2)cc1O`, the kinetic solubility was determined as 11.3 µg/mL (≈ 39.6 µM). Take `COc1ccc(/C=C/C(=O)OCC(=O)NC2CCCC2)cc1OC`: the solubility (kinetic) is 48.6 µg/mL (≈ 146 µM). This solubility kinetic is about 4.3-fold higher than that of the compound before. `CC(C)Oc1ccc(C(=O)NCCCNC(=O)c2ccccn2)cc1` came in with a kinetic solubility of 48.6 µg/mL (≈ 142 µM). The compound `COc1ccc(C(=O)Nc2c(C)cc(C)cc2C)cc1OC` had a solubility (kinetic) greater than 44.9 µg/mL. In the case of `Cc1ccc(C)c(OCC(O)CNC2CCCC2)c1.Cl` (centres undefined) it was greater than 45 µg/mL. In the case of `N#CC1=C(N)NC(=S)C(C(N)=O)C1c1ccc(Cl)cc1Cl` (centres undefined) it was 11.7 µg/mL (≈ 34.3 µM). The result for `COc1cc(N)c(Cl)cc1C(=O)OCC(=O)NCc1cccs1` reads 20.6 µg/mL (≈ 58.1 µM); that for `COc1ccc(F)cc1S(=O)(=O)Nc1ccncc1`, greater than 42.3 µg/mL. In turn, `O=C(Nc1nc(-c2cccs2)c(C(=O)C(F)(F)F)s1)c1ccco1` came in with a solubility (kinetic) of 3.8 µg/mL (≈ 10.2 µM).

On to `CC1CCCN(S(=O)(=O)c2ccc([N+](=O)[O-])cc2)C1` (centres undefined), for which the kinetic solubility turned out to be 2.9 µg/mL (≈ 10.2 µM). The result for `CCCN(Cc1cc2cc(OC)ccc2[nH]c1=O)C(=O)c1ccco1` reads 45.2 µg/mL (≈ 133 µM); that for `CCOC(=O)C1CCN(C(=O)COC(=O)CNC(=O)c2ccc(C(C)(C)C)cc2)CC1`, greater than 64.9 µg/mL; that for `CCOc1ccccc1C(=O)Nc1cccc2ccccc12`, less than 0.6 µg/mL. In the case of `CC(CCc1ccccc1)NS(=O)(=O)c1ccccc1F` (centres undefined) it was 39 µg/mL (≈ 127 µM); in that of `Cc1ccnc(NC(=O)CSc2ccccn2)c1`, 36.7 µg/mL (≈ 142 µM); in that of `O=C(O)CN1C(=O)/C(=C/c2ccc(SCc3ccccc3)o2)SC1=S`, 21.2 µg/mL (≈ 54.2 µM). In the case of `COC(=O)c1ccc2nc(-c3ccc(S(C)(=O)=O)cc3)cn2c1` it was 2 µg/mL (≈ 6.05 µM); in that of `COc1ccc(Nc2cc(Nc3ccccc3)ncn2)cc1`, less than 0.2 µg/mL; in that of `CC(C)c1ccc(NC(=S)N2CCN(C)CC2)cc1`, greater than 41.6 µg/mL. For `O=C(NC1CCCCCCC1)c1cccc(Cl)c1`, the solubility (kinetic) came to 0.9 µg/mL (≈ 3.39 µM). In the case of `Cn1cnnc1SCC(=O)NC1CCCCCC1` it was greater than 40.3 µg/mL; in that of `O=C(c1ccc(Cl)cc1)N1CCC2(CC1)OCCO2`, 39.6 µg/mL (≈ 141 µM).

`COc1ccc(NC(=O)COC(=O)CCc2ccc(S(=O)(=O)N3CCOCC3)cc2)c(OC)c1` displayed a solubility (kinetic) of 11 µg/mL (≈ 22.3 µM).

On to `COc1ccc(Cl)cc1NC(=O)COC(=O)c1cc(C)oc1C`, for which the solubility (kinetic) is 4.2 µg/mL (≈ 12.4 µM). Against the preceding compound, the solubility kinetic is about 2.6-fold lower. In the case of `Cc1ccc([N+](=O)[O-])cc1S(=O)(=O)NCCc1cn2ccccc2n1` it was 35 µg/mL (≈ 97.1 µM). As for `CC1=CCC2C(=O)N(c3ccc(S(N)(=O)=O)cc3)C(=O)C2C1` (centres undefined), the kinetic solubility is greater than 48.1 µg/mL. The result for `CC(=O)Cc1nsc(NC(=O)c2ccc(F)cc2)n1` reads greater than 41.9 µg/mL. In the case of `O=C(CCc1ccccc1)Nc1ccccc1C(=O)N1CCOCC1` it was greater than 50.8 µg/mL; in that of `O=C(OCc1ccc([N+](=O)[O-])cc1)C1CC(=O)N(Cc2ccccc2)C1` (centres undefined), greater than 53.2 µg/mL.

The compound `OC1=C(O)c2nc3cc(F)ccc3nc21` showed a kinetic solubility greater than 30.6 µg/mL.

For `CC(=O)Nc1ccc2c(c1)ncn2-c1ccccc1`, the kinetic solubility is greater than 37.7 µg/mL. In the case of `O=C1NC(=Nc2ccccc2)CS1` it was greater than 28.8 µg/mL; in that of `COc1ccc(C(C)=O)cc1CSc1ccccn1`, 37.7 µg/mL (≈ 138 µM); in that of `C=CC[n+]1cccc(-c2cc3ccc(C)cc3[nH]2)c1.[Br-]`, greater than 49.4 µg/mL. The result for `O=C(c1ccc(Cl)c([N+](=O)[O-])c1)N1CCCc2ccccc21` reads 23.7 µg/mL (≈ 74.8 µM). The compound `N#Cc1c2ccc(OCC(N)=O)cc2n2ccccc12` registered a kinetic solubility of 1.95 µg/mL (≈ 7.35 µM). This solubility kinetic lies about 12-fold lower than the previous one. Compound `O=S(=O)(NC(=S)c1ccccc1)c1ccc(F)cc1` gave a solubility (kinetic) greater than 44.3 µg/mL. `O=C(Cc1ccccc1)NCC(=O)N/N=C/c1ccc(C(=O)O)cc1` gave a kinetic solubility greater than 50.9 µg/mL. In the case of `COc1ccc2nc(Cl)cc(Cl)c2c1` it was 0.9 µg/mL (≈ 3.95 µM); in that of `CC(C)(C)OC(=O)N1CCC(C(=O)NCC2CCCO2)CC1` (centres undefined), greater than 46.9 µg/mL; in that of `COC(=O)C/C=N/N=C1/NC(=O)/C(=C/C(=O)O)S1`, greater than 40.7 µg/mL. In the case of `Cc1ccc(NC(=O)CSc2nccn2C)cc1F` it was greater than 41.9 µg/mL. As for `CCOC(=O)N1c2ccccc2C=CC1OCC` (centres undefined), the solubility (kinetic) was 8 µg/mL (≈ 32.4 µM). In the case of `O=C(NC1CCCc2ccccc21)c1ccccc1OC(F)F` (centres undefined) it was 15.5 µg/mL (≈ 48.8 µM); in that of `Cc1nc2c(C)c(C)c(C)c(C)c2nc1C`, less than 0.2 µg/mL; in that of `COc1ccc(-n2nc(C)cc2Nc2ccccc2C(=O)O)cc1`, greater than 48.5 µg/mL. Take `CC1CN(C(=O)c2ccc(NS(=O)(=O)c3ccc(F)cc3)cc2)CC(C)O1` (centres undefined): the solubility (kinetic) is greater than 58.9 µg/mL. In the case of `O=C1CSC(=Nc2cccc(Cl)c2Cl)N1` it was 37.4 µg/mL (≈ 143 µM); in that of `CC1CCCN(S(=O)(=O)c2ccc3oc(=O)ccc3c2)C1` (centres undefined), 20 µg/mL (≈ 65.1 µM).

For the compound `CSCCC1NC(=S)N(Cc2ccccc2)C1=O` (centres undefined), the solubility (kinetic) was greater than 42.1 µg/mL. `Cc1ccc2ccc(C)[n+](CCCS(=O)(=O)[O-])c2c1` showed a solubility (kinetic) of 12.4 µg/mL (≈ 44.4 µM). The result for `COc1ccc(NS(=O)(=O)c2ccc(-c3ccccn3)s2)cc1` reads 0.8 µg/mL (≈ 2.31 µM).
